Data on 1 molecule can be found in patent publication US12110503B2, “Method for differentiation of ocular cells and use thereof” (FUJIFILM Cellular Dynamics, Inc., priority 2018, dated 2024).

SMILES strings stand for the structures.

This experiment relates to anterior neuroectoderm cells. The experiment can be described thus: Retinal differentiation with removal of the BMP inhibitor (RD1 then RD2). The experiment is classed as cell-based, human. Conditions: RD1 with LDN193189 about 2 days, then RD2 without. How it is done:
In some aspects, the cells may be first differentiated in the presence of a BMP inhibitor, such as LDN1913189, for a period of time before differentiation in the absence of a BMP inhibitor. First, the anterior neuroectoderm cells are cultured in RD1 comprising a BMP pathway inhibitor, such as LDN193189, for about 1-3 days, such as 2 days. […] The second step may be for about 5-10 days, such as about 7 days, to continue differentiating the anterior neuroectoderm cells. […] VSX2 is the earliest specific marker of neural RPC within the optic vesicle and cup (Rowan, et al., 2004). VSX2^+ retinal progenitors can give rise to all cell types of the neural retina: cones, rods, ganglion cells, amacrine cells, bipolar cells, horizontal cells and Muller glia.
The cells were then cultured in Retinal Differentiation Medium 1 (RD1) for about one to four days, particularly about two days. Briefly, the RD1 (Table 1) comprised DMEM and F12 at about a 1:1 ratio, knockout serum replacement, MEM NEAA, sodium pyruvate, N-2 supplement, B-27 supplement, and ascorbic acid. In addition, the RD1 comprised a WNT pathway inhibitor (e.g., CKI-7), a BMP pathway inhibitor (e.g., LDN193189), a TGFβ pathway inhibitor (e.g., SB431542), and a MEK inhibitor (e.g., PD325901), and IGF-1. […]

In the case of `Cl.c1ccc2c(-c3cnn4cc(-c5ccc(N6CCNCC6)cc5)cnc34)ccnc2c1` [LDN193189, 4-(6-(4-(piperazin-1-yl)phenyl)pyrazolo[1,5-a]pyrimidin-3-yl)quinoline hydrochloride], the “VSX2 expression after removal of the BMP inhibitor” value was “increase expression of VSX2”.
